Columns and labels:
[1] = prior-art compound; cited from earlier work
[2] = prior-art compound; cited from earlier work; remark: listed apart in the source
rat [3] = assay: Adjuvant arthritis test in the rat (Pearson et al), anti-inflammatory effect; format: in vivo; details: sub-chronic; for Adjuvant arthritis: test series III, equimolar quantities; for adjuvant arthritis test compared with comparison compound: versus Comparison Compound C
Method: (§1) The physiological activity of the compounds prepared in the Examples has been tested using various test methods and compared with the activities of various structurally similar commercial products. In each case, testing was carried out with equimolar quantities of the test compounds. The anti-inflammatory effect was measured by the carrageenin oedema test on rat paws using the method of Winter et al (Proceed. Soc. Exp. Biol. Med. 111(1962) Page 544) and in test series III) and also by the adjuvant arthritis test in the rat according to Pearson et al (Arthrit. Rheumat. 2(1959) page 440).

[4] = Analgesic activity / overall physiological activity, in words; format: in vivo; details: test not specified; versus Comparison Compound C
Method: (§2) The physiological activity of the compounds prepared in the Examples has been tested using various test methods and compared with the activities of various structurally similar commercial products. In each case, testing was carried out with equimolar quantities of the test compounds.
The analgesic activity was determined by the Writhing Test in the mouse using the method of E. Siegmund et al (Proceed. Soc. --Exp. Biol. Med. 95(1957) Page 729) and by the Randall-Selitto Test in the rat using the method of Randall and Selitto (Arch. Int. Pharmacodyn. 111(1957) Page 409).
The anti-inflammatory effect was measured by the carrageenin oedema test on rat paws using the method of Winter et al (Proceed. Soc. Exp. Biol. Med. 111(1962) Page 544) and in test series III) and also by the adjuvant arthritis test in the rat according to Pearson et al (Arthrit. Rheumat. 2(1959) page 440).

mice = assay: Toxicity by oral administration to mice; format: in vivo, mouse; details: versus Comparison Compound of the same test series
Method: as §2
The toxicity was measured by oral administration to 50 mice.

[5] = system: carrageenin oedema on rat paws; assay: Carrageenin oedema test on rat paws (Winter et al), anti-inflammatory effect; format: in vivo; details: rat paw; versus Comparison Compound of the same test series
Method: as §1

rat [6] = assay: Randall-Selitto Test in the rat, analgesic activity; format: in vivo; details: versus Comparison Compound of the same test series
Method: (§3) The physiological activity of the compounds prepared in the Examples has been tested using various test methods and compared with the activities of various structurally similar commercial products. In each case, testing was carried out with equimolar quantities of the test compounds. The analgesic activity was determined by the Writhing Test in the mouse using the method of E. Siegmund et al (Proceed. Soc. --Exp. Biol. Med. 95(1957) Page 729) and by the Randall-Selitto Test in the rat using the method of Randall and Selitto (Arch. Int. Pharmacodyn. 111(1957) Page 409).

mouse = assay: Writhing Test in the mouse (Siegmund et al), analgesic activity; format: in vivo; details: versus Comparison Compound of the same test series
Method: as §3

In the case of O=C(OCC(O)CO)c1ccccc1Nc1ccnc2cc(Cl)ccc12 (stereo not drawn) [2,3-dihydroxypropyl N-(7-chloro-4-quinolyl)-anthranilate], the “solubility in water, prior art” value [1] is listed as “insoluble in water” and the “analgesic activity, prior art” value [2] is listed as “known to have analgesic activity”.

In the case of CP(C)(=O)COC(=O)c1ccccc1Nc1cccc(C(F)(F)F)c1 [Compound 1a, dimethylphosphinylmethyl N-(3-trifluoromethyl-phenyl)-anthranilate], the Adjuvant arthritis (rat [3]) is reported as 5-10, the “adjuvant arthritis test compared with comparison compound” value (rat [3]) is reported as “considerably better than that of Comparision Compound C” and the “analgesic activities compared with comparison compound” value [4] is reported as “clearly improved over that of Comparison Compound C”. For the same compound, the “toxicity compared with comparison compound” value (mice) was “substantially more favourable than that of Compound C”.

In the case of Cc1cccc(Nc2ccccc2C(=O)OCP(C)(C)=O)c1C [Compound 1c, Dimethylphosphinyl-methyl N-(2,3-dimethylphenyl)-anthranilate], the “Carrageenin oedema test / anti-inflammatory activity compared with comparison compound” value [5] is reported as “more or less equivalent to these of the commercial compound”, the “Randall-Selitto test compared with comparison compound” value (rat [6]) is reported as “substantial improvement over the Comparison Compound” and the “toxicity compared with comparison compound” value (mice) is reported as “more favourable toxicity than Compound B”.

With Cc1cccc(Nc2ccccc2C(=O)OCCCP(C)(C)=O)c1C [Compound 1d, Dimethylphosphinyl-propyl N-(2,3-dimethylphenyl)-anthranilate] the “Carrageenin oedema test / anti-inflammatory activity compared with comparison compound” value [5] was “more or less equivalent to these of the commercial compound”, the “Writhing test compared with comparison compound” value (mouse) was “substantial improvement over the Comparison Compound” and the “toxicity compared with comparison compound” value (mice) was “more favourable toxicity than Compound B”.

In the case of CP(C)(=O)CCCOC(=O)c1ccccc1Nc1cccc(C(F)(F)F)c1 [Compound 1e, Dimethylphosphinyl-propyl N-(3-trifluoromethylphenyl)-anthranilate], the Adjuvant arthritis (rat [3]) is reported as 10-25, the “adjuvant arthritis test compared with comparison compound” value (rat [3]) is reported as “considerably better than that of Comparision Compound C” and the “toxicity compared with comparison compound” value (mice) is reported as “substantially more favourable than that of Compound C”.

In the case of CP(C)(=O)CCCOC(=O)c1ccccc1Nc1c(C(F)(F)F)cnc2ccccc12 [Compound 1f, 3-(Dimethylphosphinyl)-propyl N-(3-trifluoromethyl-4-quinolyl)-anthranilate], the “analgesic activities compared with comparison compound” value [4] is reported as “clearly improved over that of Comparison Compound C”.

With CP(C)(=O)COC(=O)c1ccccc1Nc1ccnc2c(C(F)(F)F)cccc12 [Compound 2a, dimethylphosphinylmethyl N-(8-trifluoromethyl-4-quinolyl)-anthranilate] the “Writhing test compared with comparison compound” value (mouse) was “substantially better than the Comparison compound” and the “toxicity compared with comparison compound” value (mice) was “lower than that of Compound A”.

In the case of CP(C)(=O)COC(=O)c1ccccc1Nc1ccnc2cc(Cl)ccc12 [Compound 2c, 3-(dimethylphosphinyl)-methyl N-(7-chloro-4-quinolyl)-anthranilate], the “Carrageenin oedema test / anti-inflammatory activity compared with comparison compound” value [5] is reported as “show an improvement compared with Compound A” and the “Writhing test compared with comparison compound” value (mouse) is reported as “substantially better than the Comparison compound”.

For CP(C)(=O)COC(=O)c1cccnc1Nc1cccc(C(F)(F)F)c1 [Compound 2d, 3-(dimethylphosphinyl)-methyl 2-(3-trifluoromethylanilino)-nicotinate], the “Carrageenin oedema test / anti-inflammatory activity compared with comparison compound” value [5] was “practically almost equal to that of the Comparison Compound” and the “toxicity compared with comparison compound” value (mice) was “more than twice that of Comparision Compouhd D”.

With CP(C)(=O)CCCOC(=O)c1ccccc1Nc1ccnc2cc(Cl)ccc12 [Compound 4, 3-(dimethylphosphinyl)-propyl N-(7-chloro-4-quinolyl)-anthranilate] the “Carrageenin oedema test / anti-inflammatory activity compared with comparison compound” value [5] was “show an improvement compared with Compound A”.

For O=C(O)c1ccccc1Nc1cccc(C(F)(F)F)c1 [Compound C, Flufenamic acid, reference compound], the Adjuvant arthritis (rat [3]) was 25-50.

Source: US4160828A, “Analgesic phosphinyl compounds and compositions” (Hoechst Aktiengesellschaft, priority 1978, dated 1979)
